Values after ≈ are worked out from the molar mass of the structure shown. Values joined by “and” are separate entries in the source; they are usually repeats but may differ in a detail not shown here. Equal values may be shown once. Read-outs that look alike come from different tables or passages of the source. Bridge positions count the residues as written; N and C are the ends. Square brackets hold non-standard residues; d marks the D form. Ends that are not written are not given here. Peptide text beside a SMILES is read from it. * marks the point of attachment. X1 = CC[C@H](C)CCCCC(=O)*; Dab = NCC[C@H](N)C(=O)O
Experiments:
[1] = macaques, 1.0 mg/kg, 30 min IV infusion, one line per individual monkey (4000, 4001, 4002)
Method: Animals will be obtained from the Test Facility's colony of adult male cynomolgous monkeys (Macaca fascicularis) of Chinese origin. Animals will be weighed prior to dosing.
Intravenous administration will be via 30 minute infusion into a temporary percutaneous catheter placed into a saphenous vein. Prior to and following dose administration, the catheter will be flushed with 0.5 mL saline prior to removal. All dosing syringes will be weighed prior to and following dosing.
Serial blood samples will be collected via femoral vein (cephalic or saphenous, as necessary). Approximately 1 mL blood samples will be collected into K2EDTA tubes.
Blood samples will be collected into K2EDTA tubes and stored on wet ice. Whole blood will be processed to plasma by centrifugation (2400-2700 rpm at 5° C.) within 30 minutes of collection. Plasma samples will be split into 2 equal aliquots and stored at −80° C. until analysis.
The peptide will be purified from plasma samples from each macaque using a cation exchange-based solid-phase extraction process. Prior to extraction, a known concentration of a mass-adjusted internal standard (IS) will be added to assess recovery and allow for quantitation. Purified samples will be further subjected to high-performance liquid chromatography (HPLC) using C18 300 or 130 angstrom columns prior to MS/MS analysis. Multiple charge states will be observed by MS, so MS/MS will be employed to enable multiple reaction monitoring (MRM) analyses to determine the most MRM transitions with the highest signal-to-noise gain. Compound plasma concentrations will be determined by comparing to and compensating with co-purified IS peak intensity and validated calibrated standard curves.
Toxicokinetic parameters will be calculated using non-compartmental methods as implemented in the Phoenix® WinNonlin® ver. 6.3 comprehensive TK/PK analysis software program (Pharsight Corporation; Mountain View, Calif.) using an IV infusion model. […] Values below the lower limit of quantitation (BLQ) will be assigned a value of zero for the toxicokinetic calculations. […]

[2] = tested on: Pseudomonas aeruginosa ATCC 27853 (non-MDR; QC); conditions: cited from earlier work
[3] = tested on: Escherichia coli ATCC 25922 (QC); format: cell-based; conditions: Escherichia coli ATCC 25922 (QC)
Method: (§1) Each peptide was formulated in PBS buffer prior to testing. Peptides of SEQ ID NO:5 and SEQ ID NO:8 were brought up in 100% DMSO with 0.002% polysorbate-80 at 1.28 mg/mL (40× the highest final test concentration of 32 mcg/mL). Final test concentration of DMSO was 2.5% in the assay at the first dilution for those two compounds.
(§2) Mueller Hinton II broth (MHB II; BD; Lot Nos. 6258541 and 7143896) was used for MIC testing of aerobic organisms. 0.002% polysorbate 80 (P80) was added to the test medium.
(§3) MIC values were determined using a broth microdilution procedure described by CLSI (1, 3). Automated liquid handlers (Multidrop 384, Labsystems, Helsinki, Finland; Biomek 2000 and Biomek FX, Beckman Coulter, Fullerton Calif.) were used to conduct serial dilutions and liquid transfers.
(§4) To prepare the drug mother plates, which would provide the serial peptide dilutions for the replicate daughter plates, the wells of columns 2-12 of standard 96-well microdilution plates (Costar 3795) were filled with 150 µl of the designated diluent for each row of peptide.
(§5) The test articles and comparator compounds ([…] at 40× the highest concentration to be tested) were dispensed into the appropriate wells in column 1. The Biomek 2000 was then used to make 2-fold serial dilutions in the mother plates from column 1 through column 11. The wells of Column 12 contained no drug and served as the organism growth control wells for the assay.
(§6) The daughter plates were loaded with 185 μL per well of MHB II using the Multidrop 384. The daughter plates were completed on the Biomek FX instrument which transferred 5 uL of peptide solution from each well of a mother plate to the corresponding well of each daughter plate in a single step. A standardized inoculum of each test organism was prepared per CLSI methods. The inoculum for each organism was dispensed into sterile reservoirs divided by length (Beckman Coulter), and the Biomek 2000 was used to inoculate the plates. Daughter plates were placed on the Biomek 2000 work surface in reverse orientation so that inoculation took place from low to high drug concentration.
(§7) Plates were stacked 3-4 high, covered with a lid on the top plate, placed in plastic bags, and incubated at 35° C. for 16 to 20 hrs. Following incubation, the microplates were removed from the incubator and viewed from the bottom using a plate viewer. […] The MIC was read and recorded as the lowest concentration of peptide that inhibited visible growth of the organism.

[4] = tested on: Staphylococcus aureus ATCC 29213 (MSSA; QC); format: cell-based; conditions: Staphylococcus aureus ATCC 29213 (MSSA; QC)
Method: as §1, §2, §3, §4, §5, §6, §7

[5] = tested on: Pseudomonas aeruginosa ATCC BAA-2109 (MDR); format: cell-based; conditions: Pseudomonas aeruginosa ATCC BAA-2109 (MDR)
Method: as §1, §2, §3, §4, §5, §6, §7

[6] = tested on: Enterococcus faecalis ATCC 29212 (VSE; QC); format: cell-based; conditions: Enterococcus faecalis ATCC 29212 (VSE; QC)
Method: as §1, §2, §3, §4, §5, §6, §7

[7] = tested on: Escherichia coli ATCC 35218 (ESBL); format: cell-based; conditions: Escherichia coli ATCC 35218 (ESBL)
Method: as §1, §2, §3, §4, §5, §6, §7

[8] = tested on: Streptococcus pyogenes ATCC 49399; format: cell-based; conditions: Streptococcus pyogenes ATCC 49399
Method: as §1, §2, §3, §4, §5, §6, §7

[9] = tested on: Escherichia coli ATCC BAA-2471 (NDM-1); format: cell-based; conditions: Escherichia coli ATCC BAA-2471 (NDM-1)
Method: as §1, §2, §3, §4, §5, §6, §7

[10] = tested on: Staphylococcus aureus NRS382 (USA100; HA-MRSA); format: cell-based; conditions: Staphylococcus aureus NRS382 (USA100; HA-MRSA)
Method: as §1, §2, §3, §4, §5, §6, §7

[11] = tested on: Acinetobacter baumannii ATCC 19606 (non-MDR); format: cell-based; conditions: Acinetobacter baumannii ATCC 19606 (non-MDR)
Method: as §1, §2, §3, §4, §5, §6, §7

[12] = tested on: Pseudomonas aeruginosa ATCC 27853 (non-MDR; QC); format: cell-based; conditions: Pseudomonas aeruginosa ATCC 27853 (non-MDR; QC)
Method: as §1, §2, §3, §4, §5, §6, §7

[13] = tested on: Klebsiella pneumoniae ATCC BAA-1705 (KPC); format: cell-based; conditions: Klebsiella pneumoniae ATCC BAA-1705 (KPC)
Method: as §1, §2, §3, §4, §5, §6, §7

[14] = tested on: Staphylococcus aureus ATCC 43300 (MRSA); format: cell-based; conditions: Staphylococcus aureus ATCC 43300 (MRSA)
Method: as §1, §2, §3, §4, §5, §6, §7

[15] = tested on: Streptococcus agalactiae ATCC 13813; format: cell-based
Method: as §1, §2, §3, §4, §5, §6, §7

[16] = tested on: Enterococcus faecalis ATCC 700802 (V583 VRE); format: cell-based; conditions: Enterococcus faecalis ATCC 700802 (V583 VRE)
Method: as §1, §2, §3, §4, §5, §6, §7

[17] = tested on: Enterococcus faecium ATCC 51559 (VRE); format: cell-based; conditions: Enterococcus faecium ATCC 51559 (VRE)
Method: as §1, §2, §3, §4, §5, §6, §7

[18] = tested on: Streptococcus pneumoniae ATCC 49619 (QC); format: cell-based; conditions: Streptococcus pneumoniae ATCC 49619 (QC)
Method: as §1, §2, §3, §4, §5, §6, §7

[19] = tested on: Escherichia coli ATCC 25922 (QC); conditions: cited from earlier work
[20] = tested on: Acinetobacter baumannii ATCC BAA-1797 (MDR); experiment: microbe, parasite or virus in culture; format: cell-based; conditions: Acinetobacter baumannii ATCC BAA-1797 (MDR)
Method: as §1, §2, §3, §4, §5, §6, §7

[21] = tested on: P. aeruginosa strains (PAO1 and 2 clinical isolates); format: cell-based; conditions: three P. aeruginosa strains, 0.5×MIC exposure
Description: Each antibiotic was compared for their propensity to select for bacterial resistance phenotypes in vitro.

[22] = tested on: Enterobacter spp. (n = 102); format: cell-based, Enterobacter aerogenes and E. cloacae; conditions: Enterobacter spp. (n = 102); for % R (isolates resistant): CLSI breakpoints, colistin EUCAST
Method: (§8) The clinical isolates were obtained from USA hospitals. […] Plates were incubated at 35° C. overnight.

[23] = tested on: Escherichia coli (n = 101); format: cell-based; conditions: Escherichia coli (n = 101); for % R (isolates resistant): CLSI breakpoints, colistin EUCAST
Method: as §8

[24] = tested on: Acinetobacter spp. (n = 104); format: cell-based; conditions: Acinetobacter spp. (n = 104); for % R (isolates resistant): CLSI breakpoints
Method: as §8

[25] = tested on: Klebsiella pneumoniae (n = 101); format: cell-based; conditions: Klebsiella pneumoniae (n = 101); for % R (isolates resistant): CLSI breakpoints, colistin EUCAST
Method: as §8

[26] = tested on: Pseudomonas aeruginosa (n = 109); format: cell-based; conditions: Pseudomonas aeruginosa (n = 109); for % R (isolates resistant): CLSI breakpoints
Method: as §8

[27] = tested on: Staphylococcus aureus ATCC 29213 (MSSA; QC); conditions: cited from earlier work
[28] = tested on: Enterococcus faecalis ATCC 29212 (VSE; QC); conditions: cited from earlier work
[29] = tested on: Streptococcus pneumoniae ATCC 49619 (QC); conditions: cited from earlier work
S. aureus = experiment: Periprosthetic joint infection mouse model, implant biofilm CFU burden; format: in vivo; conditions: intraperitoneal delivery, versus untreated control mice
Method: Periprosthetic joint infection was modeled in a mouse by placing an intra-articular K-wire through the medullary canal of the proximal femur followed by intra-articular inoculation with S. aureus. Animals were treated systemically with an intraperitoneal delivery of cefazolin, rifampin, or the exemplary peptide of SEQ ID NO:1. Intraperitoneal delivery was chosen due to technical difficulties associated with intravenous delivery. Implant sonication and proximal femur homogenate were used to quantify viable bacteria.

[30] = tested on: S. aureus strain SH1000 biofilms; experiment: In vitro biofilm disruption on stainless steel rods; format: cell-based; conditions: S. aureus SH1000, 10×MIC, up to 24 hours
Description: FIG. 15 depicts the effect of administration of SEQ ID NO:1 and cefazolin on biofilm maintenance. […] SEQ ID NO:1 eliminated mature implant biofilms on a model strain of S. aureus, SH1000.

With KKTHTKTKKTHTKTKKTHTK [SEQ ID NO: 13] the “Dose Normalized Cmax” value [1] was 5000 and 7000 and 6000.
For `CC[C@H](C)CCCCC(=O)N[C@@H](CCN)C(=O)N[C@H](C(=O)N[C@@H](CCN)C(=O)N[C@H]1CCNC(=O)[C@H]([C@@H](C)O)NC(=O)[C@H](CCN)NC(=O)[C@H](CCN)NC(=O)[C@H](CC(C)C)NC(=O)[C@@H](CC(C)C)NC(=O)[C@H](CCN)NC1=O)[C@@H](C)O` [Colistin, reference compound] (X1-[Dab]T[Dab][Dab][Dab][dL]L[Dab][Dab]T; lactam 4-C), the “MIC range in parentheses below the MIC (QC range)” value (“MIC range … (QC range)” below) [2] is given as “(0.5-4) μg/mL”, the MIC [3] is given as 0.12 µg/mL (≈ 0.103 µM) and the MIC [4] is given as over 32 µg/mL. For the same compound, the MIC [5] was 0.12 µg/mL (≈ 0.103 µM), the MIC [6] was over 32 µg/mL and the MIC [7] was 0.12 µg/mL (≈ 0.103 µM). It also gave an MIC [8] of over 32 µg/mL, an MIC [9] of 0.06 µg/mL (≈ 0.0513 µM) and an MIC [10] of over 32 µg/mL. It also gave an MIC [11] of 0.25 µg/mL (≈ 0.214 µM), an MIC [12] of 0.25 µg/mL (≈ 0.214 µM) and an MIC [13] of 0.12 µg/mL (≈ 0.103 µM). The MIC [14] was over 32 µg/mL, the MIC [15] was over 32 µg/mL and the MIC [16] was over 32 µg/mL. The MIC [17] was over 32 µg/mL, the MIC [18] was over 32 µg/mL and the “MIC range … (QC range)” value [19] was “(0.25-2) μg/mL”. For the same compound, the MIC [20] was 0.5 µg/mL (≈ 0.428 µM), the “Time to development of resistance (fold MIC>10)” value [21] was 13 days and the MIC50 [22] was 0.12 µg/mL (≈ 0.103 µM). The MIC90 [22] was 0.25 µg/mL (≈ 0.214 µM), the “Mode (MIC)” value [22] was 0.12 µg/mL and the “% R (isolates resistant)” value [22] was 5.8%. It also gave an MIC50 [23] of 0.12 µg/mL (≈ 0.103 µM), an MIC90 [23] of 0.12 µg/mL (≈ 0.103 µM) and an MIC range [23] of at most 0.03 to 0.5 µg/mL. The “Mode (MIC)” value [23] was 0.12 µg/mL, the “% R (isolates resistant)” value [23] was 0% and the MIC50 [24] was 0.25 µg/mL (≈ 0.214 µM). The MIC90 [24] was over 32 µg/mL, the “Mode (MIC)” value [24] was 0.25 µg/mL and the “% R (isolates resistant)” value [24] was 20.2%. The MIC50 [25] was 0.12 µg/mL (≈ 0.103 µM), the MIC90 [25] was 32 µg/mL (≈ 27.4 µM) and the “Mode (MIC)” value [25] was 0.12 µg/mL. For the same compound, the “% R (isolates resistant)” value [25] was 27.7%, the MIC50 [26] was 0.5 µg/mL (≈ 0.428 µM) and the MIC90 [26] was 1 µg/mL (≈ 0.855 µM). For the same compound, the “Mode (MIC)” value [26] was 0.5 µg/mL and the “% R (isolates resistant)” value [26] was 7.3%.
For `C[C@@H](O)[C@H]1C(=O)N2C(C(=O)O)=C(S[C@@H]3CN[C@H](C(=O)N(C)C)C3)[C@H](C)[C@H]12` [Meropenem], the “MIC range … (QC range)” value [2] is listed as “(0.12-1) μg/mL”, the “MIC range … (QC range)” value [19] is listed as “(0.008-0.06) μg/mL” and the “MIC range … (QC range)” value [27] is listed as “(0.03-0.12) μg/mL”. The “MIC range … (QC range)” value [28] was “(2-8) μg/mL”, the MIC ([20]; ATCCBAA1797, read-out: MIC) was over 4 µg/mL and the “MIC range … (QC range)” value [29] was “(0.03-0.25) μg/mL”. The “% R (isolates resistant)” value [22] was 3.9%, the “% R (isolates resistant)” value [23] was 1% and the “% R (isolates resistant)” value [24] was 65.4%. The “% R (isolates resistant)” value [25] was 50.5%, the “% R (isolates resistant)” value [26] was 20.2% and the “% R (isolates resistant)” value ([26]; listed as meropenem) was 20%.
In the case of `Cc1nnc(SCC2=C(C(=O)O)N3C(=O)[C@@H](NC(=O)Cn4cnnn4)[C@H]3SC2)s1` [Cefazolin, cefazolin], the “Reduction of implant biofilm CFU burden (sonicate culture)” value (S. aureus) is reported as “one log reduction in viable bacteria as compared to untreated controls, but this reduction was not statistically significant” and the “Reduction of mature biofilm on stainless steel rods” value [30] is reported as “did not achieve a three-log reduction”.

From patent US20220249599A1, “TREATMENT OF IMPLANTS WITH ENGINEERED ANTIMICROBIAL AMPHIPHILIC PEPTIDES” (priority 2018, published 2022)
